Experimental data reported in US10227606B2, “Method of increasing photosynthesis and yield of plants” (NATIONAL UNIVERSITY CORPORATION NAGOYA UNIVERSITY, priority 2013, dated 2019).

System: stomata (guard cells)
Assay: Measurement of the stomatal aperture in isolated epidermal tissue
Assay type: cell-based, Arabidopsis thaliana
Conditions: 20 μM ABA, 2.5 hours under illumination; AHA2-transgenic and wild-type plants
Description: The stomatal aperture was measured according to a conventional method (27) with slight modifications. Epidermal tissue isolated from plants 3 to 4 weeks after planting overnight dark-adapted plants was incubated in basal buffer (5 mM MES-BTP, pH 6.5, 50 mM KCl, and 0.1 mM CaCl2). To inhibit light-induced stomatal opening using ABA, the epidermal tissue was incubated under blue light/red light (10 μmol m^−2s^−1 blue light (Stick-B-32; EYELA, Tokyo, Japan) superimposed on 50 μmol ^m−2s^−1 background red light (LED-R; EYELA)) for 2.5 hours at 24° C. in the presence or absence or 20 μM ABA. The stomatal aperture in the abaxial epidermis was measured using a microscope. Stomatal aperture was represented as the average and standard error (SEM) for 25 stomata. Results were confirmed by blind reassessment by another researcher.

CC1=CC(=O)CC(C)(C)[C@@]1(O)/C=C/C(C)=C\C(=O)O [ABA, abscisic acid]
effect of ABA on light-induced stomatal opening: inhibited
